Data on 3 compounds can be found in patent US20100197602A1, “USE OF FOLLICULAR GONADOTROPIN RELEASING PEPTIDE AS A THERAPEUTIC AGENT IN THE TREATMENT OF STREPTOCOCCUS PNEUMONIAE INFECTION” (priority 2007, published 2010).

Residues, ends and D or L forms follow the SMILES beside them.

One data set relates to HCMV strain AD169. Put plainly: HCMV plaque reduction assay. The data set is classed as cell-based. Particulars: HCMV AD169 in MRC-5 cells; peptide 10 micrograms per ml; 7-10 days. The source says:
Ganciclovir was used as positive control.
A general note: Plaque reduction counts the foci of infection that form in a cell layer.

The test system of a further data set is HIV-1IIIB. Put plainly: HIV-1 antiviral assay (CPE reduction, MTS). The data set is classed as cell-based. The settings on record: peptide 10 micrograms per ml, 6 days post-infection.
A further data set deals with Pseudomonas aeruginosa. The data set is classed as cell-based. Particulars: 5 micrograms per ml.
In another data set the test system is Streptococcus pneumoniae. The data set is classed as cell-based. Particulars: 5 micrograms per ml.
Another data set relates to MRSA. The settings on record: 5 micrograms per ml.
The nature of data set [1]: in vitro. Particulars: human, CEM-SS cells.
The nature of data set [2]: in vitro. Particulars: human, MRC-5 cells (human embryonal lung fibroblasts).
Data set [3] is described as follows: Cell viability in HepG2-2.2.15 cells (dye uptake) of the HBV assay. The settings on record: human.

Turning to `Nc1nc(O)c2ncn(COC(CO)CO)c2n1` [Ganciclovir], the “% plaque reduction” value with HCMV strain AD169 worked out at 100%.
Consider `Cc1cn([C@H]2C[C@H](N=[N+]=[N-])[C@@H](CO)O2)c(=O)[nH]c1=O` [AZT], for which the “% CPE reduction in HIV-1 infected CEM-SS cells” value in the data set on HIV-1IIIB was 99%.
A word on the % inhibition: it is the percentage by which the read-out fell short of the control. Low readings indicate a response near the control, high ones a response far below the control. What is called viability is a per cent measure of how many cells are alive, often set against a control. Regarding `C[C@@H](O)[C@H](N)C(=O)N[C@@H](CC(=O)O)C(=O)N[C@H](C(=O)N[C@@H](CO)C(=O)N[C@@H](Cc1c[nH]cn1)C(=O)N[C@@H](Cc1c[nH]cn1)C(=O)N[C@@H](CC(=O)O)C(=O)N[C@@H](CCC(N)=O)C(=O)N[C@@H](CC(=O)O)C(=O)N[C@@H](Cc1c[nH]cn1)C(=O)N1CCC[C@H]1C(=O)N[C@H](C(=O)N[C@@H](Cc1ccccc1)C(=O)N[C@@H](CC(N)=O)C(=O)O)[C@@H](C)O)[C@@H](C)O` [FGRP, Thr-Asp-Thr-Ser-His-His-Asp-Gln-Asp-His-Pro-Thr-Phe-Asn-OH] (H-TDTSHHDQDHPTFN-OH), the “% inhibition” value turned out to be 0.0% in the data set on Pseudomonas aeruginosa, 100.0% with Streptococcus pneumoniae and 0.0% with MRSA. Also, the viability at 10 micrograms per ml in “in vitro [1]” was 100%. The viability at 144 h in “in vitro [2]” came to 100%. Moreover, the viability at 144 h, 10 micrograms per ml in data set [3] was 100%.
